In ChEMBL document CHEMBL6134843, “HDAC11 Inhibition as a Potential Therapeutic Strategy for AML: Target Identification, Lead Discovery, Antitumor Potency, and Mechanism Investigation” (J Med Chem, 2025):
pIC50: −log10 of the molar value. Active and inactive are the calls of the source. The calls are words filed in the database; no cut-off is given here.

Tests used:
U-937 [1] = assay: Induction of ferroptosis in human U-937 cells assessed as increase in cellular ROS accumulation at 10 uM in presence of Zinc protoporphyrin by flow cytometry analysis; type: functional, cell-based
U-937 [2] = assay: Induction of cell differentiation in human U-937 cells assessed as increase in CD14 expression at 5 uM incubated for 48 hrs by flow cytometry analysis; type: functional, cell-based
[3] = tested on: Acute myeloid leukemic cell; assay: Induction of ferroptosis in human Acute myeloid leukemic cells assessed as upregulation of FTL mRNA level by RT-qPCR analysis; type: functional, cell-based
OCI-AML2 [4] = assay: Induction of ferroptosis in human OCI-AML2 cells assessed as increase in cellular ROS level incubated for 48 hrs by DCFH-DA staining based flow cytometry analysis; type: functional, cell-based; details: dose 2.5-10 µM
U-937 [5] = assay: Effect on MYC gene expression in human U-937 cells at 10 uM incubated for 48 hrs by RT-qPCR; type: functional, cell-based
U-937 [6] = assay: Antiproliferative activity against human U-937 cells assessed as suppression of cell growth at 5 uM incubated for 48 hrs in presence of K67 by trypan blue staining based analysis; type: functional
[7] = tested on: Acute myeloid leukemic cell; assay: Induction of ferroptosis in human Acute myeloid leukemic cells assessed as upregulation of TFRC protein level at 2.5 to 10 uM by Western blot analysis; type: functional, cell-based; details: dose 2.5-10 µM
[8] = Toxicity in female C57BL/6 mouse assessed as drug tolerance at 50 mg/kg, ip administered once daily; type: organism-based; details: in vivo
U-937 [9] = assay: Induction of cell cycle arrest in human U-937 cells assessed as accumulation of cells at G1 phase at 5 uM incubated for 48 hrs by EdU/DAPI staining based flow cytometry analysis; type: functional
OCI-AML2 [10] = assay: Induction of cell cycle arrest in human OCI-AML2 cells assessed as accumulation of cells at G1 phase at 5 uM incubated for 48 hrs by EdU/DAPI staining based flow cytometry analysis; type: functional
U-937 [11] = assay: Induction of ferroptosis in human U-937 cells assessed as increase in ferrous ion accumulation at 5 uM incubated for 48 hrs by RhoNox-1 staining based flow cytometry analysis; type: functional, cell-based
THP-1 = assay: Antiproliferative activity against human THP-1 cells assessed as cell growth inhibition incubated for 2 days by CCK-8 assay; details: THP-1, 48 h
[12] = Induction of cell apoptosis in human THP-1 cells at 5 uM incubated for 48 hrs by Annexin V/DAPI staining based flow cytometry analysis relative to control; type: functional
U-937 [13] = assay: Upregulation of p62 mRNA level in human U-937 cells by qRT-PCR analysis; type: functional, cell-based
[14] = Antitumor activity against mouse MLL-AF9 cells allografted in female C57BL/6 mouse model assessed as GFP positive leukemic cells in peripheral blood at 50 mg/kg, ip administered once daily for 32 days in presence of cytarabine by FITC staining based analysis (reference value: 72.5 %); type: functional; details: time 32 day
[15] = Volume of distribution at steady state in ICR(CD-1) mouse at 5 mg/kg, iv treated up to 24 hrs by LC-MS/MS analysis; type: ADME, organism-based; details: in vivo, read-out: Vdss
OCI-AML2 [16] = assay: Induction of cell differentiation in human OCI-AML2 cells assessed as increase in CD14 expression at 5 uM incubated for 48 hrs by flow cytometry analysis; type: functional, cell-based
[17] = AUC (0 to infinity) in ICR(CD-1) mouse at 50 mg/kg, ip treated up to 24 hrs by LC-MS/MS analysis; type: ADME, organism-based; details: in vivo
MLL-AF9 [18] = assay: Antitumor activity against mouse MLL-AF9 cells allografted in female C57BL/6 mouse model assessed as reduction in hepatomegaly at 50 mg/kg, ip administered once daily for 23 days; type: functional, organism-based; details: time 23.0 day
[19] = Tmax in ICR(CD-1) mouse at 50 mg/kg, ip treated up to 24 hrs by LC-MS/MS analysis; type: ADME, organism-based; details: in vivo
OCI-AML2 [20] = assay: Induction of ferroptosis in human OCI-AML2 cells assessed as increase in malondialdehyde level at 5 uM incubated for 48 hrs in presence of ferrostatin-1; type: functional, cell-based
OCI-AML2 [21] = assay: Induction of ferroptosis in human OCI-AML2 cells assessed as increase in ferrous ion accumulation at 5 uM incubated for 48 hrs by RhoNox-1 staining based flow cytometry analysis; type: functional, cell-based
[22] = tested on: Acute myeloid leukemic cell; assay: Induction of ferroptosis in human Acute myeloid leukemic cells assessed as […] of ACSL4 mRNA level by RT-qPCR analysis; type: functional, cell-based
MLL-AF9 [23] = assay: Antitumor activity against mouse MLL-AF9 cells allografted in female C57BL/6 mouse model assessed as reduction in splenomegaly at 50 mg/kg, ip administered once daily for 23 days in presence of cytarabine; type: functional, organism-based; details: time 23.0 day
[24] = Half life in ICR(CD-1) mouse at 50 mg/kg, ip treated up to 24 hrs by LC-MS/MS analysis; type: ADME, organism-based; details: in vivo
[25] = tested on: Acute myeloid leukemic cell; assay: Induction of ferroptosis in human Acute myeloid leukemic cells assessed as upregulation of GPX4 mRNA level by RT-qPCR analysis; type: functional, cell-based
U-937 [26] = assay: Effect on MOAP1 gene expression in human U-937 cells at 10 uM incubated for 48 hrs by RT-qPCR; type: functional, cell-based
[27] = AUC (0 to infinity) in ICR(CD-1) mouse at 5 mg/kg, iv treated up to 24 hrs by LC-MS/MS analysis; type: ADME, organism-based; details: in vivo
U-937 [28] = assay: Antitumor activity against human U-937 cells assessed as cell growth inhibition incubated for 2 days by CCK-8 assay; details: U-937, 48 h
[29] = Toxicity in female C57BL/6 mouse assessed as drug tolerance at 50 mg/kg, ip administered once daily in presence of cytarabine; type: organism-based; details: in vivo
U-937 [30] = assay: Effect on DDIT3 gene expression in human U-937 cells at 10 uM incubated for 48 hrs by RT-qPCR; type: functional, cell-based
U-937 [31] = assay: Effect on CCNB1 gene expression in human U-937 cells at 10 uM incubated for 48 hrs by RT-qPCR; type: functional, cell-based
[32] = Antitumor activity against mouse MLL-AF9 cells allografted in female C57BL/6 mouse model assessed as GFP positive leukemic cells in peripheral blood at 50 mg/kg, ip administered once daily for 32 days by FITC staining based analysis (reference value: 72.5 %); type: functional; details: time 32 day
U-937 [33] = assay: Induction of ferroptosis in human U-937 cells assessed as increase in lipid peroxidation level incubated for 48 hrs by C11-BODIPY 581/591 staining based flow cytometry analysis; type: functional, cell-based; details: dose 2.5-10 µM
[34] = Toxicity in female C57BL/6 mouse model assessed as change in body weight at 50 mg/kg, ip administered once daily in presence of cytarabine; type: organism-based; details: in vivo
[35] = tested on: Acute myeloid leukemic cell; assay: Induction of ferroptosis in human Acute myeloid leukemic cells assessed as upregulation of TF protein level at 2.5 to 10 uM by Western blot analysis; type: functional, cell-based; details: dose 2.5-10 µM
U-937 [36] = assay: Induction of ferroptosis in human U-937 cells assessed as upregulation of HMOX1 level at 10 uM in presence of Zinc protoporphyrin by flow cytometry analysis; type: functional, cell-based
U-937 [37] = assay: Induction of cell apoptosis in human U-937 cells incubated for 48 hrs by Annexin V/DAPI staining based flow cytometry analysis; type: functional; details: dose 2.5-10 µM
[38] = Cytotoxicity against HEK293T cells assessed as cell viability incubated for 2 days by CCK-8 assay; type: toxicity, cell-based, HEK-293T; details: human

With `O=C(NO)c1cccc2[nH]c(C#Cc3cccc(C(F)(F)F)c3)cc12` the Activity (U-937 [1]) was “Active”, the Activity (U-937 [2]) was “Active” and the Activity [3] was “Active”. The Activity (OCI-AML2 [4]) was “Dose-dependent-effect”, the Activity (U-937 [5]) was “Active” and the Activity (U-937 [6]) was “inactive”. The Activity [7] was “Active”, the Activity [8] was “Non-toxic” and the Activity (U-937 [9]) was “Dose-dependent-effect”. The Activity (OCI-AML2 [10]) was “Dose-dependent-effect”, the Activity (U-937 [11]) was “Active” and the pIC50 (THP-1) was no less than 5.00. For the same molecule, the Activity [12] was roughly 20%, the Activity (U-937 [13]) was “Active” and the Activity [14] was 4.3%. The Vd [15] was 10.2 L/kg, the Activity (OCI-AML2 [16]) was “Active” and the AUC(0-inf) [17] was 2 µg·h/mL. For the same molecule, the Activity (MLL-AF9 [18]) was “Active”, the Tmax [19] was 4.8 min and the Activity (OCI-AML2 [20]) was “inactive”. The Activity (OCI-AML2 [21]) was “Active”, the Activity [22] was “Active” and the Activity (MLL-AF9 [23]) was “Active”. The half-life [24] was 8.95 h, the Activity [25] was “Active” and the Activity (U-937 [26]) was “Active”. The AUC(0-inf) [27] was 0.625 µg·h/mL, the pIC50 (U-937 [28]) was 5.02 and the Activity [29] was “Non-toxic”. The Activity (U-937 [30]) was “Active”, the Activity (U-937 [31]) was “Active” and the Activity [32] was 17.2%. For the same molecule, the Activity (U-937 [33]) was “Dose-dependent-effect”, the Activity [34] was “Non-toxic” and the Activity [35] was “Active”. For the same molecule, the Activity (U-937 [36]) was “Active; Partially Reversed Zinc Protoporphyrin Inhibition”, the Activity (U-937 [37]) was “Dose-dependent-effect” and the IC50 at 2 days [38] was 80 µM.
